Data: patent publication US6762170B1, “2-(purin-9-yl)-tetrahydrofuran-3,4-diol derivatives” (SmithKlineBeecham Corporation, priority 1998, dated 2004)
Where a name gives a salt, the structure may show the parent alone.

How the values were obtained:
Format in all cases: cell-based
Adenosine 2a receptor = target: T1, Adenosine 2a receptor (Homo sapiens, UniProt P29274); assay: Agonist activity against adenosine 2a receptor subtype (CHO cells, cAMP response element/SPAP reporter); settings: EC50 ratio to NECA; transfected CHO cells, basal cAMP reflected by SPAP
T1 construct: expressed in transfected cells; host or cells: Chinese hamster ovary (CHO) cells, co-transfected with a CRE-SPAP reporter
Procedure: (§1) (1) Agonist Activity Against Adenosine 2a, Adenosine 1 and Adenosine 3 Receptor Subtypes.
(§2) Agonist selectivity of compounds against other human adenosine receptors is determined using Chinese hamster ovary (CHO) cells transfected with the gene for the relevant human adenosine receptor following a method based on that of Castanon and Spevak, 1994. The CHO cells are also transfected with cyclic AMP response elements promoting the gene for secreted placental alkaline phosphatase (SPAP) (Wood, 1995). The effect of test compounds may be determined by their effects on basal levels of cAMP (A2a) or on forskolin-enhanced cAMP (A1 and A3) as reflected by changes in levels of SPAP. EC50 values for compounds may then be determined as a ratio to that of the non-selective agonist N-ethyl carboxamide adenosine (NECA).
(§3) Values given in the Table are EC50 values as a ratio of that of NECA.

Adenosine 3 receptor = target: T2, Adenosine 3 receptor (Homo sapiens, UniProt P0DMS8); assay: Agonist activity against adenosine 3 receptor subtype (CHO cells, forskolin-enhanced cAMP, SPAP reporter); settings: EC50 ratio to NECA; transfected CHO cells, forskolin-enhanced cAMP reflected by SPAP
T2 construct: expressed in transfected cells; host or cells: Chinese hamster ovary (CHO) cells, co-transfected with a CRE-SPAP reporter
T2 sequence (P0DMS8 1-318): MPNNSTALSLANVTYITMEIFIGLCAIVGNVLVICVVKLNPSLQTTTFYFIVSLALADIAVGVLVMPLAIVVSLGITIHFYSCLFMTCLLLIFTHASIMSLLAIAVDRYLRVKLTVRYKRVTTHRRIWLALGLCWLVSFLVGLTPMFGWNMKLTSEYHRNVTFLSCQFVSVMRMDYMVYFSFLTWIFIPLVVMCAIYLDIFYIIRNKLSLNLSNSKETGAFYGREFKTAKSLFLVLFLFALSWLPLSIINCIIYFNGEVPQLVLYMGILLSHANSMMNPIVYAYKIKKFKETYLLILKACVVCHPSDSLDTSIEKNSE
Procedure: as §1, §2, §3

Adenosine 1 receptor = target: T3, Adenosine 1 receptor (Homo sapiens, UniProt P30542); assay: Agonist activity against adenosine 1 receptor subtype (CHO cells, forskolin-enhanced cAMP, SPAP reporter); settings: EC50 ratio to NECA; transfected CHO cells, forskolin-enhanced cAMP reflected by SPAP
T3 construct: expressed in transfected cells; host or cells: Chinese hamster ovary (CHO) cells, co-transfected with a CRE-SPAP reporter
T3 sequence (P30542 1-326): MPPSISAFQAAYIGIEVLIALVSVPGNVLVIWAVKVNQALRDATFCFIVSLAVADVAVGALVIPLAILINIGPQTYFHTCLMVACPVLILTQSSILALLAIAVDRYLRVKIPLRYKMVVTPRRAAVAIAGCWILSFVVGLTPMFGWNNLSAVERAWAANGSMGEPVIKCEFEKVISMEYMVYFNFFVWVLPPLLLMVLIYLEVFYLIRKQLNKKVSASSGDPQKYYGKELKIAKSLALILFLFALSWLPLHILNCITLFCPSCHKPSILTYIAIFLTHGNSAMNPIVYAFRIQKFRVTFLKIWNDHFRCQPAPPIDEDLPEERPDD
Procedure: as §1, §2, §3

T1 sequence (P29274 whole entry): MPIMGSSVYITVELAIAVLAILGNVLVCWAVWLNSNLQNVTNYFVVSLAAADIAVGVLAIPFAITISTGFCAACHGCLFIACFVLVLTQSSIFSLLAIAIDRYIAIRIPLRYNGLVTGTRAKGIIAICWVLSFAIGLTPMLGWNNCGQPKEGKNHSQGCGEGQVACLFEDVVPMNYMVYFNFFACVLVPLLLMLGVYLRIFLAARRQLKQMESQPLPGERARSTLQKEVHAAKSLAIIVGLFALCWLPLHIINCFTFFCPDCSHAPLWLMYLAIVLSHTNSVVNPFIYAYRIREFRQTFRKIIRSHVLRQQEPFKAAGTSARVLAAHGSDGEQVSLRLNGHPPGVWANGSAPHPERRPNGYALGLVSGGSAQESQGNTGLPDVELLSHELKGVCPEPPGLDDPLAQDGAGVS

Row | Molecule | A2a (EC50 values as a ratio of that of NECA) (Adenosine 2a receptor) | A3 (EC50 values as a ratio of that of NECA) (Adenosine 3 receptor) | A1 (EC50 values as a ratio of that of NECA) (Adenosine 1 receptor)
1 | CCc1cc(C2OC(n3cnc4c(NCCS(=O)(=O)NC)nc(NC(CO)Cc5ccccc5)nc43)C(O)C2O)on1 (stereo not drawn) [Example 27, 2-[9-[5S-(3-Ethyl-isoxazol-5-yl)-3R,4S-dihydroxy-tetrahydro-furan-2R-yl]-2-(1S-hydroxymethyl-2-phenyl-ethylamino)-9H-purin-6-ylamino]-ethanesulfonic acid methylamide formate] | 3 | >273 | 3.18
2 | CCc1cc(C2OC(n3cnc4c(NCCC(C)(C)C)nc(NCCN5CCOCC5)nc43)C(O)C2O)on1 [Example 42, (2R,3R,4S,5S)-2-[6-(3,3-Dimethyl-butylamino)-2-(2-morpholin-4-ethylamino)-purin-9-yl]-5-(3-ethyl-isoxazol-5-yl)-tetrahydro-furan-3,4-diol diformate]] | 41.06 | >395 | 1369.08
3 | CCc1cc(C2OC(n3cnc4c(NCc5cccc(I)c5)nc(NCCc5cn(C)cn5)nc43)C(O)C2O)on1.O=CO.O=CO [Example 20, (2S,3S,4R,5R)-2-(3-Ethyl-isoxazol-5-yl)-5-{6-(3-iodo-benzylamino)-2-[2-(1-methyl-1H-imidazol-4-yl)-ethylamino]-purin-9-yl}-tetrahydro-furan-3,4-diol diformate] | 2.04 | >267 | 310.9
4 | CCc1cc(C2OC(n3cnc4c(NC(CO)C(C)C)nc(NCCNc5ccccn5)nc43)C(O)C2O)on1 [Example 71, (2S,3S,4R,5R)-2-(3-Ethyl-isoxazol-5-yl)-5-{6-(1S-hydroxymethyl-2-methyl-propylamino)-2-[2-(pyridin-2-ylamino)-ethylamino]-purin-9-yl}-tetrahydro-furan-3,4-diol diformate] | 12.75 | >184 | 79.51
5 | CCc1cc([C@H]2O[C@@H](n3cnc4c(NCC(c5ccccc5)c5ccccc5)nc(NCCN5CCCCC5)nc43)[C@H](O)[C@@H]2O)on1.O=CO.O=CO [Example 1, (2R,3R,4S,S)-2-[6-(2,2-Diphenyl-ethylamino)-2-(2-piperidin-1-yl-ethylamino)-purin-9-yl]-5-(3-ethyl-isoxazol-5-yl)-tetrahydro-furan-3,4-diol diformate] | 0.52 | >436 | 288.5
6 | CCc1cc(C2OC(n3cnc4c(NC5CCS(=O)(=O)CC5)nc(NCCN5CCCCC5)nc43)C(O)C2O)on1.O=CO.O=CO [Example 31, (2R,3R,4S,5S)-2-[6-(1,1-Dioxo-hexahydro-1λ6-thiopyran-4-ylamino)-2-(2-piperidin-1-yl-ethylamino)-purin-9-yl]-5-(3-ethyl-isoxazol-5-yl)-tetrahydro-furan-3,4-diol diformate] | 10.59 | >310 | 577.2
7 | CCc1cc(C2OC(n3cnc4c(NC(CO)C(C)C)nc(NCCN5CCCC5)nc43)C(O)C2O)on1 [Example 69, (2S,3S,4R,5R)-2-(3-Ethyl-isoxazol-5-yl)-5-[6-(1S-hydroxymethyl-2-methyl-propylamino)-2-(2-pyrrolidin-1-yl-ethylamino)-purin-9-yl]-tetrahydro-furan-3,4-diol diformate] | 23.73 | >180 | 298.75
8 | CCC(CC)Nc1nc(NCCc2cn(C)cn2)nc2c1ncn2C1OC(c2cc(C=NO)no2)C(O)C1O (stereo not drawn) [Example 50, 5-(5R-{6-Ethyl-propylamino)-2-[2(1-methyl-1H-imidazol-4-yl)-ethylamino]-purin-9-yl}-3S,4R-dihydroxy-tetrahydro-furan-2S-yl)-isoxazole-3-carbaldehyde oxime diformate] | 7.26 | >113 | >6188
9 | CCc1cc(C2OC(n3cnc4c(NCc5ccccc5)nc(NCCc5cn(C)cn5)nc43)C(O)C2O)on1 [Example 43, (2R,3R,4S,5S)-2-{6-Benzylamino-2-[2-(1-methyl-1H-imidazol-1-yl)-ethylamino]-purin-9-yl}-5-(3-ethyl-isoxazol-5-yl)-tetrahydro-furan-3,4-diol diformate] | 3.53 | >335 | 672.4

Now from value to molecule:

Row | A2a (EC50 values as a ratio of that of NECA) (Adenosine 2a receptor) | A3 (EC50 values as a ratio of that of NECA) (Adenosine 3 receptor) | A1 (EC50 values as a ratio of that of NECA) (Adenosine 1 receptor) | Molecule
10 | 1.93 | >189 | 54.04 | CCc1cc(C2OC(n3cnc4c(NC(CO)Cc5ccccc5)nc(NCCN5CCCCC5)nc43)C(O)C2O)on1 [Example 45, (2S,3S,4R,5R)-2-(3-Ethyl-isoxazol-5-yl)-5-[6-(1S-hydroxymethyl-2-phenyl-ethylamino)-2-(2-piperidin-1-yl-ethylamino)-purin-9-yl]-tetrahydro-furan-3,4-diol diformate]
11 | 4.74 | >262 | 128.27 | (2S,3S,4R,5R)-2-(3-Ethyl-isoxazol-5yl)-5-[6-(3-iodo-benzylamino)-2-(2-piperidin-1-yl-ethylamino)-purin-9-yl]-tetrahydro-furan-3,4-diol diformate [Example 65]
12 | 2.12 | >85 | 86.8 | CCc1cc(C2OC(n3cnc4c(NC(CC)CC)nc(NC5CCC(N)CC5)nc43)C(O)C2O)on1.O=CO.O=CO [Example 39, (2R,3R,4S,5S)-2-[2(trans-4-Amino-cyclohexylamino)-6(1-ethyl-propylamino)-purin-9-yl]-5-(3-ethyl-isoxazol-5-yl)-tetrahydro-furan-3,4-diol diformate]
13 | 3.03 | >146 | 61.9 | CCc1cc([C@H]2O[C@@H](n3cnc4c(NC5CCOCC5)nc(NCCc5ccccn5)nc43)[C@H](O)[C@@H]2O)on1.O=CO.O=CO [Example 13, (2S,3S,4R,5R)-2-(3-Ethyl-isoxazol-5-yl)-5-[2-(2-pyridin-2-yl-ethylamino)-6-(tetrahydro-pyran-4-ylamino)-purin-9-yl]-tetrahydro-furan-3,4-diol diformate]
14 | 14.5 | >263 | 165.8 | CCc1cc(C2OC(n3cnc4c(NC5CCN(C(C)=O)CC5)nc(NC(CO)Cc5ccccc5)nc43)C(O)C2O)on1 (stereo not drawn) [Example 28, 1-{4-[9-[5S-(3-Ethyl-isoxazol-5-yl)-3R,4S-dihydroxy-tetrahydro-furan-2R-yl]-2-(1S-hydroxymethyl-2-phenyl-ethylamino)-9H-purin-6-ylamino]-piperidin-1-yl}-ethanone formate]
15 | 10.57 | >262 | 148.43 | CCc1cc(C2OC(n3cnc4c(NC(CO)Cc5ccccc5)nc(NCCN5CCCC5)nc43)C(O)C2O)on1 [Example 63, (2S,3S,4R,5R)-2-(3-Ethyl-isoxazol-5-yl)-5-[6-(1S-hydroxymethyl-2-phenyl-ethylamino)-2-(2-pyrrolidin-1-yl-ethylamino)-purin-9-yl]-tetrahydro-furan-3,4-diol diformate]
16 | 0.066 | >350 | 10.18 | CCC(CC)Nc1nc(NCCN2CCCCC2)nc2c1ncn2[C@@H]1O[C@H](c2cc(C(C)O)no2)[C@@H](O)[C@H]1O.O=CO.O=CO (stereo partly drawn) [Example 54, (2R,3R,4S,5S)-2-[6-(1-Ethyl-propylamino)-2-(2-piperidin-1-yl-ethylamino)-purin-9-yl]-5-[3-(1-hydroxy-ethyl)-isoxazol-5-yl]-tetrahydro-furan-3,4-diol diformate]
